# Laboratory results as given in patent publication US4100346A, “Certain 7(o-amino-methyl- or methylaminomethylphenyl- or cyclohexadienyl- or thienylacetamide)-3[1-carboxymethyl-(or ethyl- or propyl-)-tetrazol-5-ylthiomethyl]-3-cephem-4-carboxylic acids” (Bristol-Myers Company, priority 1976, dated 1978).
# Several values for one entry are separate records, joined by “and”; a condition that tells them apart may be missing. Identical values can stand only once.
# Tested on: Mycobacterium tuberculosis
# Format: cell-based
smiles,measurement,value
O=C(Cc1cccs1)N[C@@H]1C(=O)N2C(C(=O)[O-])=C(C[n+]3ccccc3)CS[C@H]12 [Cephaloridine],Minimum inhibitory concentration,63 µg/mL
Cc1nnc(SCC2=C(C(=O)O)N3C(=O)[C@@H](NC(=O)Cn4cnnn4)[C@H]3SC2)s1 [Cefazolin],Minimum inhibitory concentration,125 µg/mL and 250 µg/mL
